Non-standard residues stand in square brackets, D forms with d. Residues, ends and D or L forms follow the SMILES beside them. *: point of attachment. Octanoyl = CCCCCCCC(=O)*
Experiments:
Assay type in all cases: cell-based
FPR2 = target: T1, FPR2 (Homo sapiens, UniProt P25090); assay: FPR2 activation, intracellular calcium (Fura-2/AM) in RBL cells overexpressing FPR2; details: calcium ion increase in FPR2-overexpressing RBL cells
T1 construct: expressed in transfected cells; host or cells: RBL cells (FPR2-overexpressing)
T1 sequence (P25090 1-351): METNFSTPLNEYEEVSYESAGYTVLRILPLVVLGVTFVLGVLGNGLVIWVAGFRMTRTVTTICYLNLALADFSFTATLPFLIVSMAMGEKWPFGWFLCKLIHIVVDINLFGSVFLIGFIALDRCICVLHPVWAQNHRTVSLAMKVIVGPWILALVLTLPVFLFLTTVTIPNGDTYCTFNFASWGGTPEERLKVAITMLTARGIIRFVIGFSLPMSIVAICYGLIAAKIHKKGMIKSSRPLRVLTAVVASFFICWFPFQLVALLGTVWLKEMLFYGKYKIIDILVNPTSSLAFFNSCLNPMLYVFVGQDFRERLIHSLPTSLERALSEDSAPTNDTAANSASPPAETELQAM
Description: The present inventors have observed changes in calcium ion permeability in order to confirm whether or not the immunomodulatory and antibacterial peptide candidates of the present invention activates the immunomodulatory function of a living organism. Specifically, the concentration of calcium ions in cells was measured in order to confirm whether the peptide activates FPR2. To this end, the present inventors used RBL cells in which FPR2 was not expressed, RBL cells in which FPR1 was overexpressed (FPR1-RBL), and RBL cells in which FPR2 was overexpressed, and used Fura-2/AM, a staining material having a strong binding affinity for calcium, in a method for sensitively measuring free intracellular calcium ions. That is, the cells were cultured in RPMI medium containing 10% fetal bovine serum, centrifuged in the mid-log phase (1-3×10^7 cells/mL), and harvested. Then, the cells were washed several times with RPMI medium containing no fetal bovine serum and resuspended in RPMI medium to a concentration of 1×10^7 cells/mL. Then, the Fura-2/AM at a final concentration of 3 μM was added thereto and incubated in an incubator (37° C., 5% CO2) for 45 minutes with continuous stirring. After the appropriate time elapsed, the cells were harvested and washed again several times with RPMI medium. Then, the cells were suspended in an appropriate amount of RPMI medium, in which sulfinpyrazone was supplemented at a concentration of 250 μM, so as to prevent the Fura-2 that entered into the cells from being released to the outside of the cells. Approximately 2×10^6 cells were taken each time and harvested by rapid centrifugation and resuspended in 1 mL of Locke solution in which EGTA was added but no calcium ions were added, and the absorbance ratios at two wavelengths of 340 nm and 380 nm were monitored on a spectrophotometer. After treating with the peptide according to the present invention at different concentrations (1 μM, 0.1 μM, and 0.01 μM) at intervals of about 1 minute, the difference in absorbance at two wavelengths was examined and this was later converted to the concentration of calcium ions freed into the cells according to the method of Grynkiewicz.

Pseudomonas aeruginosa = details: 18 h
Description: (§1) In addition, in order to measure the antibacterial activity of the peptide, Staphylococcus aureus, which is a gram-positive bacterium, and Pseudomonas aeruginosa, which is a gram-negative bacterium, were prepared, followed by 4th smearing on a flat medium of an agar, and culturing was performed overnight in a 36° C. incubator. The next day, strain colonies generated on the agar plate medium were inoculated into 3 mL-nutrient broth and cultured overnight in a shaking incubator at 36° C. and 220 rpm. The next day, the bacteria were diluted to measure absorbance at 600 nm, the absorbance was adjusted to 0.5, and the bacteria were diluted in a nutrient broth at a ratio of 1:100. Then, the peptides prepared in the Example were sequentially diluted in a nutrient broth at concentrations of 0, 1.25, 2.5, 5, 10, 20, and 40 μM, prepared 1 mL each, and then 1 mL of the diluted bacteria was inoculated. Then, the mixture was stirred at 36° C. and 220 rpm and incubated for 18 hours, and then the absorbance was measured at 600 nm.

Staphylococcus aureus = details: 18 h
Description: as §1

| EC50 (FPR2) [µM] | IC50 (Pseudomonas aeruginosa) [µM] | IC50 (Staphylococcus aureus) [µM] | SMILES |
| --- | --- | --- | --- |
| 0.0929 | 4.69 | 21 | CCCCCCCC(=O)N[C@@H](CCCCN)C(=O)N[C@@H](Cc1ccccc1)C(=O)N[C@@H](CCCCN)C(=O)N[C@@H](Cc1c[nH]c2ccccc12)C(=O)N[C@@H](CCCNC(=N)N)C(=O)N[C@@H](Cc1ccc(O)cc1)C(=O)N[C@H](CCSC)C(N)=O [compound 2] (Octanoyl-KFKWRY[dM]-NH2) |
| 0.0654 | 7.41 | 19.8 | CSCC[C@@H](NC(=O)[C@H](Cc1ccc(O)cc1)NC(=O)[C@H](CCCNC(=N)N)NC(=O)[C@H](Cc1c[nH]c2ccccc12)NC(=O)[C@H](CCCCN)NC(=O)[C@H](Cc1ccccc1)NC(=O)[C@@H](N)CCCCN)C(N)=O [compound 3] (H-KFKWRY[dM]-NH2) |
| 0.108 | 8.48 | 12.3 | CCCCCCCC(=O)N[C@@H](CCCCN)C(=O)N[C@@H](Cc1c[nH]c2ccccc12)C(=O)N[C@@H](CCCCN)C(=O)N[C@@H](Cc1c[nH]c2ccccc12)C(=O)N[C@@H](CCCNC(=N)N)C(=O)N[C@@H](Cc1ccc(O)cc1)C(=O)N[C@H](CCSC)C(N)=O [compound 4] (Octanoyl-KWKWRY[dM]-NH2) |
| 0.0907 | 25.4 | 4.86 | CCCCCCCC(=O)N[C@@H](CCCNC(=N)N)C(=O)N[C@@H](Cc1c[nH]c2ccccc12)C(=O)N[C@@H](CCCNC(=N)N)C(=O)N[C@@H](Cc1c[nH]c2ccccc12)C(=O)N[C@@H](CCCNC(=N)N)C(=O)N[C@@H](Cc1ccc(O)cc1)C(=O)N[C@H](CCSC)C(N)=O [compound 5] (Octanoyl-RWRWRY[dM]-NH2) |
| 0.0303 | 6.43 | 39.9 | CSCC[C@@H](NC(=O)[C@H](Cc1ccc(O)cc1)NC(=O)[C@H](CCCNC(=N)N)NC(=O)[C@H](Cc1c[nH]c2ccccc12)NC(=O)[C@H](CCCNC(=N)N)NC(=O)[C@H](Cc1c[nH]c2ccccc12)NC(=O)[C@@H](N)CCCNC(=N)N)C(N)=O [compound 6] (H-RWRWRY[dM]-NH2) |

From US20230226137A1, “Novel Pharmaceutical Composition for Treating Dry Eye Syndrome” (Novacell Technology Inc., priority 2020, published 2023)
